Assay results taken from PMC2119004 (The Journal of Experimental Medicine, 1991).
Ends that are not written are not given here.

Experiments:
I-Ad [1] = target: I-Ad (Mus musculus, UniProt P01921+P04228); assay: Inhibition of biotin-Myo; assay type: binding; conditions: Fig. 7a; 1 mM DTT, 48 h
[2] = system: insulin-immune or A(1-14)-immune H-2d and H-2b lymph node lymphocytes; assay: Lymph node proliferation assay; assay type: cell-based, mouse; conditions: Fig. 6a,b; INS-primed BALB/c or C57BL/10 (H-2d, H-2b); 4 d, [3H]thymidine
I-Ed [3] = target: T1, I-Ed (Mus musculus, UniProt P01904+P01915); assay: Inhibition of biotin-HEL; assay type: binding; conditions: Fig. 8b; 2 µM biotin-HEL(104-120)
T1 sequence (P01904 whole entry, looked up): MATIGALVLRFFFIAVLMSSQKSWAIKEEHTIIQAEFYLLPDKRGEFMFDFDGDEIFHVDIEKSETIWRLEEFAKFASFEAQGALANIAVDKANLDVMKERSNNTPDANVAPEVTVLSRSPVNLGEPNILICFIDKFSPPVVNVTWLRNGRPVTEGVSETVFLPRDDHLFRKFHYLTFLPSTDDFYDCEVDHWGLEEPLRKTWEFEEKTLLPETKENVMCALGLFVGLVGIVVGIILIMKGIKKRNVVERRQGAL
T1 sequence (P01915 whole entry, looked up): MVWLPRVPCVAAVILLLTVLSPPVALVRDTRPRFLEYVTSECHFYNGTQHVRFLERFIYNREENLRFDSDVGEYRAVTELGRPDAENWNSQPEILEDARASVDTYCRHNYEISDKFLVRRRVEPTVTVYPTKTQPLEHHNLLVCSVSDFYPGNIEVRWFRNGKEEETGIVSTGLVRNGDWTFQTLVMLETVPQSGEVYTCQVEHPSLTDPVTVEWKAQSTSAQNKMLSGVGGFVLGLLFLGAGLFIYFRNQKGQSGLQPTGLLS

[4] = system: Bb-6 and Bd-l.4 T cell hybridomas; assay: Stimulation of T cell hybridomas by fixed APC; assay type: cell-based, mouse; conditions: for requirement of DTT for presentation by fixed APC (in words): Fig. 4, fixed TH2.2, 18 h at 37°C, 0.15 M citrate/phosphate, pH 5 (A(1-14) forms) or pH 6 (sulfonated A chain), ± 2 mM DTT
[5] = system: Bb-6 and Bd-l.4 T cell hybridomas; assay: Stimulation of T cell hybridomas in the presence of live APC; assay type: cell-based, mouse; conditions: Fig. 2; for stimulation of T cells in the presence of live APC (in words): live TH2.2, serum-containing media, 24 h, HT-2 lymphokine assay
I-Ed [6] = target: T1, I-Ed; assay: Binding of alkylated HEL; conditions: data not shown
[7] = system: I-Ab-restricted beef insulin-reactive T cell clones; conditions: large panel of I-Ab-restricted beef insulin-reactive T cell clones; cited from earlier work
apamin-specific T cells = conditions: live APC; reduced and alkylated apamin; cited from earlier work
I-Ad [8] = target: T2, I-Ad (Mus musculus, UniProt P01921+P04228); assay: Binding of biotinylated insulin to purified I-Ad; conditions: preliminary, data not shown; absence of reduction
T2 sequence (P01921 whole entry, looked up): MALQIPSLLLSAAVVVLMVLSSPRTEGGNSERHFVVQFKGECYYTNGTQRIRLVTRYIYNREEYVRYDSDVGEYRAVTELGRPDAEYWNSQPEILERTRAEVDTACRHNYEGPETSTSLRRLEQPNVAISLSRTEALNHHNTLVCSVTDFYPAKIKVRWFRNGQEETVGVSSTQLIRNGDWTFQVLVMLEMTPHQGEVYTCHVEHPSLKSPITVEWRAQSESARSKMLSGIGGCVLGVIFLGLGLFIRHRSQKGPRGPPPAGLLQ
T2 sequence (P04228 whole entry, looked up): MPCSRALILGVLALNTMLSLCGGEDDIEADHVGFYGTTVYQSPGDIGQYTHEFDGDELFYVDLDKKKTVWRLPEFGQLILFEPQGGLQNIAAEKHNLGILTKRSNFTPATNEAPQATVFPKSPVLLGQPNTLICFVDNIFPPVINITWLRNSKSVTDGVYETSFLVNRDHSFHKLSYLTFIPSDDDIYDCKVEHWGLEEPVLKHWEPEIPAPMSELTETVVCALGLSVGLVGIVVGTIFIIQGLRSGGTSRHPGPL

[9] = system: Bd-l.4 T cell hybridoma (I-Ad-restricted); conditions: cited from earlier work
[10] = system: Bb-6 T cell hybridoma (I-Ab-restricted); conditions: cited from earlier work

O[C@@H](CS)[C@@H](O)CS (racemic) [DTT, dithiothreitol]
inhibition of peptide binding by DTT alone (in words) (I-Ad [1]): did not inhibit peptide binding

FVNQHLCGSHLVEALYLVCG- ERGFFYTPKA [B(1-30)]
proliferation of beef insulin-immune lymphocytes (in words) [2]: but not to B chain

GIVEQCCASVCSLY [A(1-14)]
inhibition of biotin-HEL(104-120) binding to I-Ed (in words) (I-Ed [3]): only at relatively high
potency relative to insulin/DTT with fixed APC (in words) ([4]; Fig. 3, fixed TH2.2): equivalent
stimulation of T cells in the presence of live APC (in words) [5]: essentially inactive

GMNAWVAWRNRC- KGTDVY [HEL(104-120)]
effect of sulfhydryl alkylation on binding to I-Ed (in words) (I-Ed [6]): does not affect its capacity to bind purified FEd

INS: Beef insulin purchased from Elanco Products Co.
molar excess of DTT to insulin disulfides at optimal response ([4]; Fig. 1b, fixed TH2.2, 33 µM INS): ~10 fold
DTT concentration for optimal T cell responses ([4]; Fig. 1b, fixed TH2.2, 18 h at 37°C in PBS, 33 µM INS): 0.1 to 1 mM
activation of T cells by fixed APC exposed to antigen and DTT (in words) ([4]; fixed TH2.2, overnight, 2 mM DTT): able to activate Bb-6 and Bd-l.4 T cells

Sulfonated A chain: sulfonated A chain of beef insulin purified from sulfonated insulin by reverse-phase HPLC
fraction of T cell clones responding to sulfonated A chain but not performic acid-oxidized insulin [7]: > 90%
requirement of DTT for presentation by fixed APC (in words) [4]: in the presence, but not the absence, of DTT were capable of stimulating Bd-l.4 and Bb-6
fold lower concentration of intact insulin giving comparable stimulation ([5]; live APC, both I-Ab- and I-Ad-restricted T cells): 3-10 fold

air oxidized A(1-14): air-oxidized form of A(1-14) (GIVEQCCASVCSLY; disulfide (positions not given here); also: air-oxidized, interchain disulfides; UniProt P01317 85-98, looked up, fragment)
requirement of DTT for presentation by fixed APC (in words) [4]: disulfide reduction was required for presentation

apamin
T cells failing to recognize apamin after reduction and alkylation (apamin-specific T cells): 3/16

biotinylated insulin: biotinylated insulin
binding of biotinylated insulin to I-Ad without reduction (in words) (I-Ad [8]): can bind to I-Ad

oxlNS: Performic acid-oxidized beef insulin
stimulation of T cells in the presence of live APC (in words) [5]: do not stimulate these T cells

pork insulin: pork insulin
recognition by Bd-l.4 (in words) [9]: partiallycrossreactivewith pork insulin
recognition by Bb-6 (in words) [10]: but not pork, insulin

purified A chain from oxlNS: purified A chain from oxINS insulin
stimulation of T cells in the presence of live APC (in words) [5]: do not stimulate these T cells

rcamlNS: reduced and carboxyamidomethylated beef insulin
stimulation of T cells in the presence of live APC (in words) [5]: do not stimulate these T cells
